Several values for one entry are separate records, joined by “and”; a condition that tells them apart may be missing. Equal values may be shown once. Read-outs that look alike come from different tables or passages of the source.
Columns and labels:
Details in all cases: COS-7 membranes
[1] = biological target: T1, α1a-AR (Homo sapiens, UniProt P35348); assay: α1-Adrenergic Receptor Binding Assay, 125I-HEAT radio-ligand binding, transfected COS-7 cell membranes, α1a subtype
T1 construct: expressed in transfected cells; host or cells: COS-7 cells (African Green monkey kidney), membranes
T1 sequence (P35348 1-466): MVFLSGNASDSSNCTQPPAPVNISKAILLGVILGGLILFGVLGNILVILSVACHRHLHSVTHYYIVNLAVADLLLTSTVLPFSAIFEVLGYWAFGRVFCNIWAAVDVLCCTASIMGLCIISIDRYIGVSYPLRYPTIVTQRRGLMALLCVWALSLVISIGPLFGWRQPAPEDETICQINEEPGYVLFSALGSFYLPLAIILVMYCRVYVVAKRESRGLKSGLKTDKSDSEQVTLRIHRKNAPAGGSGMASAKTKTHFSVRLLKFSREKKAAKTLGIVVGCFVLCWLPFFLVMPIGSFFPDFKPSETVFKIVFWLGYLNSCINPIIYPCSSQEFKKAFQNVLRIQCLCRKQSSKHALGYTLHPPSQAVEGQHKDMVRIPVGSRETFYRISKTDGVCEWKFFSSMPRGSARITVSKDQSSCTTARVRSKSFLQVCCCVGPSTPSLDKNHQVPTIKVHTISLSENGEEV
Procedure: (§1) Membranes were prepared from COS-7 cells (African Green monkey kidney SV40-transformed cells) that had been transfected with one of the three α1-AR subtypes by the following method: COS cells from ten 100 mm tissue culture plates were scraped into a 5 ml volume of TE (a mixture of 50 mM tris(hydroxymethyl)aminomethane hydrochloride (Tris-HCl) and 5 mM ethylenediaminetetraacetic acid (EDTA) at pH 7.4). The cell suspension was disrupted with a Brinkman Polytron (at a setting of 8) for 10 sec. The disrupted cells were centrifuged at 1000×g for 10 min at 4° C. Supernatants were centrifuged at 34,500×g for 20 min at 4° C. The membrane pellets were suspended in a 2 ml volume of TNE (a mixture of 50 mM Tris-HCl, 5 mM EDTA and 150 mM NaCl at pH7.4). An aliquot of the membrane suspension was stored at −70° C. until use. The protein concentration was determined using a BioRad “DC” protein assay kit following membrane solubilization with Triton X-100.
(§2) Triplicate determinations of radio-ligand binding in the presence of increasing concentrations of testing compound were made. The reagents were added to 96-well polypropylene plate wells. Each assay well contained 140 μL TNE, 25 μL 125′-2-(β-4-hydroxyphenyl)ethylaminomethyltetralone (^125I-HEAT) (specific activity 2200 Ci/mmol, Dupont-New England Nuclear, […] final), 10 μL testing compound dissolved in dimethyl sulfoxide (DMSO) ([…] to 10 μM in half-log increments, final), and 25 μL appropriate α1-AR membrane subtype suspension in TNE (0.5 ng/μL for the α1a and α1b subtypes and 13 ng/μL for the α1d subtype). The plate was incubated at rt for 1 hr. The contents of the wells were filtered through a glass filter (type C) (GF/C) membrane Unifilter plate (Packard Instruments) using the Packard Filtermate cell harvester. The filter plates were dried in a vacuum oven for 30 min at 40° C. 25 μL Microscint 20 liquid scintillation fluid (Packard Instuments) was added to each well. The radioactive content was analyzed in the TopCount microplate scintillation counter (Packard Instruments).
(§3) The Ki values (in nM) shown in Table 1 were determined using GraphPad Prism software.

[2] = biological target: T2, α1b-AR (Homo sapiens, UniProt P35368); assay: α1-Adrenergic Receptor Binding Assay, 125I-HEAT radio-ligand binding, transfected COS-7 cell membranes, α1b subtype
T2 construct: expressed in transfected cells; host or cells: COS-7 cells (African Green monkey kidney), membranes
T2 sequence (P35368 1-520): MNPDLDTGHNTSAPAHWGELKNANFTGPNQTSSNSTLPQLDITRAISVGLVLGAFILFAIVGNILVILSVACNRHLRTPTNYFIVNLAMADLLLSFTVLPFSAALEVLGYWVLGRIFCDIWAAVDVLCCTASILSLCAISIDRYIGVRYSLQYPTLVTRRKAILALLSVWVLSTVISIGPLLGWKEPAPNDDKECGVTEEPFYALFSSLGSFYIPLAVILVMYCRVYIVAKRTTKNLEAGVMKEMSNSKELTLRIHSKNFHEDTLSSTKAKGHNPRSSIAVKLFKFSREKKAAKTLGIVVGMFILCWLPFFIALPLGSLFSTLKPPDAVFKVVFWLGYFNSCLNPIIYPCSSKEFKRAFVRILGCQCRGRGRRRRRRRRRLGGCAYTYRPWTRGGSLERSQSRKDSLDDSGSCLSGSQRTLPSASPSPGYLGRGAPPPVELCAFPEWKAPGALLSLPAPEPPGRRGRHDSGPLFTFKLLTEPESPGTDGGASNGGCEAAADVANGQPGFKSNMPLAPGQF
Procedure: as §1, §2, §3

[3] = biological target: T3, α1d-AR (Homo sapiens, UniProt P25100); assay: α1-Adrenergic Receptor Binding Assay, 125I-HEAT radio-ligand binding, transfected COS-7 cell membranes, α1d subtype
T3 construct: expressed in transfected cells; host or cells: COS-7 cells (African Green monkey kidney), membranes
T3 sequence (P25100 1-572): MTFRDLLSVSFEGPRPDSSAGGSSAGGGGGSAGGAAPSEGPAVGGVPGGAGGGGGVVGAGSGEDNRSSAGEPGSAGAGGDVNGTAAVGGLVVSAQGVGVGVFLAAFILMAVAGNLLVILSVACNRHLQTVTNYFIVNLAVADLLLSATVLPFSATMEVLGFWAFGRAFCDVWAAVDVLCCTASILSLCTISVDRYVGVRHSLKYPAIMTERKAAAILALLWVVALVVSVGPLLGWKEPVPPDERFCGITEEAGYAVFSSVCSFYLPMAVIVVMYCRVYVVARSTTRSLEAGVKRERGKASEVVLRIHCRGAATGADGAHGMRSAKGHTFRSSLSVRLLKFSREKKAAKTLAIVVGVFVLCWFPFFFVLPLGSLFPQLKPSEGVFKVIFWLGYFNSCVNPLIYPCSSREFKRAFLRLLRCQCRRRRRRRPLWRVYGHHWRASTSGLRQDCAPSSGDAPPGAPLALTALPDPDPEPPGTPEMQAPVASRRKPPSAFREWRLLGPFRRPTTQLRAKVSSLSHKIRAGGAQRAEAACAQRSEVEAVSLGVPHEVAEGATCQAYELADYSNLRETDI
Procedure: as §1, §2, §3

[4] = average value, read-out: Alpha 1 Ki α1a (1) Average Value
[5] = individual values, read-out: Alpha 1 Ki α1a (2) Individual Values
[6] = average value, read-out: Alpha 1 Ki α1b (1) Average Value
[7] = individual values, read-out: Alpha 1 Ki α1b (2) Individual Values
[8] = average value, read-out: Alpha 1 Ki α1d (1) Average Value
[9] = individual values, read-out: Alpha 1 Ki α1d (2) Individual Values

Row | Structure (SMILES) | Ki [1, 4] | Ki [1, 5] | Ki [2, 6] | Ki [2, 7] | Ki [3, 8] | Ki [3, 9]
1 | CC(C)Oc1ccccc1N1CCN(CC2CC(C(=O)N3CCC(Oc4ccccc4)CC3)=NO2)CC1 (stereo not drawn) [Compound 29, {5-[4-(2-isopropoxy-phenyl)-piperazin-1-ylmethyl]-4,5-dihydro-isoxazol-3-yl}-(4-phenoxy-piperidin-1-yl)-methanone] | 6.8 nM | 2.2 nM and 11.4 nM | 672 nM | 1010 nM and 333 nM | 8.2 nM | 5.6 nM and 10.8 nM
2 | CC(C)Oc1ccccc1N1CCN(CC2CC(C(=O)N3CCc4cc(Cl)ccc43)=NO2)CC1 (stereo not drawn) [Compound 16, (5-chloro-2,3-dihydro-indol-1-yl)-{5-[4-(2-isopropoxy-phenyl)-piperazin-1-ylmethyl]-4,5-dihydro-isoxazol-3-yl}-methanone] | 8.3 nM | 8.3 nM | 133 nM | 133 nM | 4.7 nM | 4.7 nM
3 | CC(C)Oc1ccccc1N1CCN(CC2CC(C(=O)N3CCC(Oc4ccccc4)CC3)=NO2)CC1 (single isomer, unassigned) [Compound 39, {(5S*)-5-[4-(2-isopropoxy-phenyl)-piperazin-1-ylmethyl]-4,5-dihydro-isoxazol-3-yl}-(4-phenoxy-piperidin-1-yl)-methanone] | 1.6 nM | 1.4 nM and 1.8 nM | 217 nM | 223 nM and 210 nM | 8.55 nM | 10.4 nM and 6.7 nM
4 | CC(C)Oc1ccccc1N1CCN(CC2CC(CN3CCCCC3=O)=NO2)CC1 (single isomer, unassigned) [Compound 2, 1-{(5R*)-5-[4-(2-isopropoxy-phenyl)-piperazin-1-ylmethyl]-4,5-dihydro-isoxazol-3-ylmethyl}-piperidin-2-one] | 0.79 nM | 1 nM and 0.7 nM and 0.86 nM and 0.6 nM | 53.5 nM | 79 nM and 41 nM and 56 nM and 38 nM | 4.5 nM | 5.2 nM and 4.7 nM and 5.8 nM and 2.3 nM
5 | COc1cccc(CNc2ccc3c(c2)N(CC2=NOC(CN4CCN(c5ccccc5OC(C)C)CC4)C2)CC3)c1 (stereo not drawn) [Compound 9, (1-{5-[4-(2-isopropoxy-phenyl)-piperazin-1-ylmethyl]-4,5-dihydro-isoxazol-3-ylmethyl}-2,3-dihydro-1H-indol-6-yl)-(3-methoxy-benzyl)-amine] | 34 nM | 34 nM | 195 nM | 195 nM | 22 nM | 22 nM
6 | COc1cc2c(cc1OC)N(C(=O)C1=NOC(CN3CCN(c4ccccc4OC(C)C)CC3)C1)CC2 (stereo not drawn) [Compound 23, (5,6-dimethoxy-2,3-dihydro-indol-1-yl)-{5-[4-(2-isopropoxy-phenyl)-piperazin-1-ylmethyl]-4,5-dihydro-isoxazol-3-yl}-methanone] | 5.65 nM | 5.65 nM | 259 nM | 259 nM | 6.56 nM | 6.56 nM
7 | CC(=O)N1CCc2cc(NC(=O)C3=NOC(CN4CCN(c5ccccc5OC(C)C)CC4)C3)ccc21 (stereo not drawn) [Compound 22, 5-[4-(2-isopropoxy-phenyl)-piperazin-1-ylmethyl]-4,5-dihydro-isoxazole-3-carboxylic acid (1-acetyl-2,3-dihydro-1H-indol-5-yl)-amide] | 2.02 nM | 2.54 nM and 1.5 nM | 80.4 nM | 73 nM and 87.7 nM | 1.81 nM | 1.5 nM and 2.13 nM
8 | CC(C)Oc1ccccc1N1CCN(CC2CC(C(=O)N3CCOCC3)=NO2)CC1 (single isomer, unassigned) [Compound 44, {(5S*)-5-[4-(2-isopropoxy-phenyl)-piperazin-1-ylmethyl]-4,5-dihydro-isoxazol-3-yl}-morpholin-4-yl-methanone] | 2.32 nM | 2.32 nM | 521 nM | 521 nM | 19.9 nM | 19.9 nM
9 | CC(C)Oc1ccccc1N1CCN(CC2CC(CN3CCCCC3=O)=NO2)CC1 (stereo not drawn) [Compound 1, 1-{5-[4-(2-isopropoxy-phenyl)-piperazin-1-ylmethyl]-4,5-dihydro-isoxazol-3-ylmethyl}-piperidin-2-one] | 0.96 nM | 0.96 nM | 82 nM | 82 nM | 8.5 nM | 8.5 nM
10 | CC(C)Oc1ccccc1N1CCN(CC2CC(CN3CCc4ccccc43)=NO2)CC1 (stereo not drawn) [Compound 4, 1-{5-[4-(2-isopropoxy-phenyl)-piperazin-1-ylmethyl]-4,5-dihydro-isoxazol-3-ylmethyl}-2,3-dihydro-1H-indole] | 1.9 nM | 1.9 nM | 101 nM | 101 nM | 10 nM | 10 nM
11 | CC(C)Oc1ccccc1N1CCN(CC2CC(CN3CCCCC3=O)=NO2)CC1 (single isomer, unassigned) [Compound 3, 1-{(5S*)-5-[4-(2-isopropoxy-phenyl)-piperazin-1-ylmethyl]-4,5-dihydro-isoxazol-3-ylmethyl}-piperidin-2-one] | 2.5 nM | 2.5 nM | 215 nM | 215 nM | 20 nM | 20 nM
12 | CC(C)Oc1ccccc1N1CCN(CC2CC(C(=O)N3CCc4ccc(NCc5ccccc5F)cc43)=NO2)CC1 (stereo not drawn) [Compound 15, [6-(2-fluoro-benzylamino)-2,3-dihydro-indol-1-yl]-{5-[4-(2-isopropoxy-phenyl)-piperazin-1-ylmethyl]-4,5-dihydro-isoxazol-3-yl}-methanone] | 9.6 nM | 9.6 nM | 128 nM | 128 nM | 11.6 nM | 11.6 nM
13 | CC(C)Oc1ccccc1N1CCN(CC2CC(CN3CCCCC3)=NO2)CC1 (stereo not drawn) [Compound 5, 1-(2-isopropoxy-phenyl)-4-(3-piperidin-1-ylmethyl-4,5-dihydro-isoxazol-5-ylmethyl)-piperazine] | 10 nM | 10 nM | 5000 nM | 5000 nM | 178 nM | 178 nM

From patent US20080221116A1, “ISOXAZOLINE ALPHA 1a/1d ADRENORECEPTOR ANTAGONISTS” (priority 2006, published 2008)
